Measurements as given in ChEMBL document CHEMBL4229379, “Synthesis and structure-activity relationship of novel bisindole amidines active against MDR Gram-positive and Gram-negative bacteria” (Eur J Med Chem, 2018).
≈ marks a conversion by molar mass, not a printed value.

Tests used:
[1] = tested on: Stenotrophomonas maltophilia; assay: Antibacterial activity against Stenotrophomonas maltophilia ATCC 13636 after 18 hrs by CLSI broth microdilution method; type: functional; details: ATCC 13636, 18 h
Enterococcus faecalis [2] = assay: Antibacterial activity against vancomycin-sensitive Enterococcus faecalis ATCC 29212 after 18 hrs by CLSI broth microdilution method; type: functional; details: ATCC 29212, 18 h
Staphylococcus aureus [3] = assay: Antibacterial activity against methicillin-resistant Staphylococcus aureus 12-33 after 18 hrs by CLSI broth microdilution method; type: functional; details: 12-33, 18 h
Klebsiella pneumoniae [4] = assay: Antibacterial activity against extended-spectrum beta-lactamase deficient Klebsiella pneumoniae 12-4 after 18 hrs by CLSI broth microdilution method; type: functional; details: 12-4, 18 h
Pseudomonas aeruginosa [5] = assay: Antibacterial activity against Pseudomonas aeruginosa 12-16 after 18 hrs by CLSI broth microdilution method; type: functional; details: 12-16, 18 h
Serratia marcescens = assay: Antibacterial activity against Serratia marcescens ATCC 21074 after 18 hrs by CLSI broth microdilution method; type: functional; details: ATCC 21074, 18 h
Enterococcus faecalis [6] = assay: Antibacterial activity against vancomycin-resistant Enterococcus faecalis ATCC 51299 after 18 hrs by CLSI broth microdilution method; type: functional; details: ATCC 51299, 18 h
Staphylococcus aureus [7] = assay: Antibacterial activity against methicillin-sensitive Staphylococcus aureus 15 after 18 hrs by CLSI broth microdilution method; type: functional; details: Staphylococcus aureus, 15, 18 h
Staphylococcus aureus [8] = assay: Antibacterial activity against methicillin-sensitive Staphylococcus aureus ATCC 29213 after 18 hrs by CLSI broth microdilution method; type: functional; details: ATCC 29213, 18 h
Enterobacter cloacae = assay: Antibacterial activity against Enterobacter cloacae ATCC 43560 after 18 hrs by CLSI broth microdilution method; type: functional; details: ATCC 43560, 18 h
[9] = tested on: Staphylococcus epidermidis; assay: Antibacterial activity against methicillin-resistant Staphylococcus epidermidis 12-8 after 18 hrs by CLSI broth microdilution method; type: functional; details: 12-8, 18 h
Enterococcus faecium [10] = assay: Antibacterial activity against vancomycin-sensitive Enterococcus faecium 12-3 after 18 hrs by CLSI broth microdilution method; type: functional; details: 12-3, 18 h
Klebsiella aerogenes = assay: Antibacterial activity against Enterobacter aerogenes ATCC 13048 after 18 hrs by CLSI broth microdilution method; type: functional; details: ATCC 13048, 18 h
Escherichia coli [11] = assay: Antibacterial activity against extended-spectrum beta-lactamase deficient Escherichia coli 1515 after 18 hrs by CLSI broth microdilution method; type: functional; details: Escherichia coli, 1515, 18 h
Citrobacter freundii = assay: Antibacterial activity against Citrobacter freundii ATCC 43864 after 18 hrs by CLSI broth microdilution method; type: functional; details: ATCC 43864, 18 h
Enterococcus faecalis [12] = assay: Antibacterial activity against vancomycin-resistant Enterococcus faecalis 09-9 after 18 hrs by CLSI broth microdilution method; type: functional; details: 09-9, 18 h
Proteus mirabilis = assay: Antibacterial activity against Proteus mirabilis 12-6 after 18 hrs by CLSI broth microdilution method; type: functional; details: 12-6, 18 h
[13] = tested on: Staphylococcus epidermidis; assay: Antibacterial activity against methicillin-sensitive Staphylococcus epidermidis ATCC 12228 after 18 hrs by CLSI broth microdilution method; type: functional; details: ATCC 12228, 18 h
Enterococcus faecalis [14] = assay: Antibacterial activity against vancomycin-sensitive Enterococcus faecalis 12-5 after 18 hrs by CLSI broth microdilution method; type: functional; details: 12-5, 18 h
Pseudomonas aeruginosa [15] = assay: Antibacterial activity against Pseudomonas aeruginosa PAO1 after 18 hrs by CLSI broth microdilution method; type: functional; details: PAO1, 18 h
[16] = Cytotoxicity against HEK293T cells assessed as reduction in cell viability after 48 hrs by MTS assay; type: cell-based, HEK-293T; details: human
[17] = tested on: Acinetobacter calcoaceticus; assay: Antibacterial activity against Acinetobacter calcoaceticus ATCC 19606 after 18 hrs by CLSI broth microdilution method; type: functional; details: ATCC 19606, 18 h
Escherichia coli [18] = assay: Antibacterial activity against extended-spectrum beta-lactamase harboring Escherichia coli 12-15 after 18 hrs by CLSI broth microdilution method; type: functional; details: 12-15, 18 h
Escherichia coli [19] = assay: Antibacterial activity against extended-spectrum beta-lactamase deficient Escherichia coli 12-14 after 18 hrs by CLSI broth microdilution method; type: functional; details: 12-14, 18 h
Pseudomonas aeruginosa [20] = assay: Antibacterial activity against Pseudomonas aeruginosa ATCC 27853 after 18 hrs by CLSI broth microdilution method; type: functional; details: ATCC 27853, 18 h
Staphylococcus aureus [21] = assay: Antibacterial activity against methicillin-sensitive Staphylococcus aureus 12-28 after 18 hrs by CLSI broth microdilution method; type: functional; details: 12-28, 18 h
Enterococcus faecium [22] = assay: Antibacterial activity against vancomycin-resistant Enterococcus faecium 12-1 after 18 hrs by CLSI broth microdilution method; type: functional; details: 12-1, 18 h
Proteus vulgaris = assay: Antibacterial activity against Proteus vulgaris ATCC 29905 after 18 hrs by CLSI broth microdilution method; type: functional; details: ATCC 29905, 18 h
Staphylococcus aureus [23] = assay: Antibacterial activity against methicillin-resistant Staphylococcus aureus ATCC 33591 after 18 hrs by CLSI broth microdilution method; type: functional; details: ATCC 33591, 18 h
[24] = tested on: Staphylococcus epidermidis; assay: Antibacterial activity against methicillin-sensitive Staphylococcus epidermidis 12-6 after 18 hrs by CLSI broth microdilution method; type: functional; details: 12-6, 18 h
Klebsiella pneumoniae [25] = assay: Antibacterial activity against extended-spectrum beta-lactamase harboring Klebsiella pneumoniae ATCC 700603 after 18 hrs by CLSI broth microdilution method; type: functional; details: Klebsiella pneumoniae, 700603, 18 h
Enterococcus faecium [26] = assay: Antibacterial activity against vancomycin-resistant Enterococcus faecium ATCC 700221 after 18 hrs by CLSI broth microdilution method; type: functional; details: ATCC 700221, 18 h
Klebsiella pneumoniae [27] = assay: Antibacterial activity against new delhi metallo-beta-lactamase-1 harboring Klebsiella pneumoniae ATCC BAA-2146 after 18 hrs by CLSI broth microdilution method; type: functional; details: ATCC BAA-2146, 18 h
Providencia rettgeri = assay: Antibacterial activity against Providencia rettgeri ATCC 31052 after 18 hrs by CLSI broth microdilution method; type: functional; details: ATCC 31052, 18 h
Klebsiella pneumoniae [28] = assay: Antibacterial activity against extended-spectrum beta-lactamase harboring Klebsiella pneumoniae 12-8 after 18 hrs by CLSI broth microdilution method; type: functional; details: 12-8, 18 h
Escherichia coli [29] = assay: Antibacterial activity against extended-spectrum beta-lactamase deficient Escherichia coli ATCC 25922 after 18 hrs by CLSI broth microdilution method; type: functional; details: ATCC 25922, 18 h
Klebsiella pneumoniae [30] = assay: Antibacterial activity against extended-spectrum beta-lactamase deficient Klebsiella pneumoniae 7 after 18 hrs by CLSI broth microdilution method; type: functional; details: Klebsiella pneumoniae, 7, 18 h

Row | SMILES | MIC [1] | MIC (Enterococcus faecalis [2]) | MIC (Staphylococcus aureus [3]) | MIC (Klebsiella pneumoniae [4]) | MIC (Pseudomonas aeruginosa [5]) | MIC (Serratia marcescens) | MIC (Enterococcus faecalis [6]) | MIC (Staphylococcus aureus [7]) | MIC (Staphylococcus aureus [8]) | MIC (Enterobacter cloacae) | MIC [9] | MIC (Enterococcus faecium [10]) | MIC (Klebsiella aerogenes) | MIC (Escherichia coli [11]) | MIC (Citrobacter freundii) | MIC (Enterococcus faecalis [12]) | MIC (Proteus mirabilis) | MIC [13] | MIC (Enterococcus faecalis [14]) | MIC (Pseudomonas aeruginosa [15]) | further results
1 | CN(C)C(=N)c1ccc2cc(-c3ccc4cc(-c5cc6ccc(C(=N)N(C)C)cc6[nH]5)ccc4c3)[nH]c2c1 | 32 µg/mL (≈ 64.2 µM) | 32 µg/mL (≈ 64.2 µM) | 2 µg/mL (≈ 4.01 µM) | > 128 µg/mL | > 128 µg/mL | > 128 µg/mL | 32 µg/mL (≈ 64.2 µM) | 2 µg/mL (≈ 4.01 µM) | 2 µg/mL (≈ 4.01 µM) | 64 µg/mL (≈ 128 µM) | 1 µg/mL (≈ 2.01 µM) | 16 µg/mL (≈ 32.1 µM) | > 128 µg/mL | 32 µg/mL (≈ 64.2 µM) | 32 µg/mL (≈ 64.2 µM) | 4 µg/mL (≈ 8.02 µM) | > 128 µg/mL | 2 µg/mL (≈ 4.01 µM) | 32 µg/mL (≈ 64.2 µM) | > 128 µg/mL | CC50 at 48 h [16]: 6.2 µg/mL (≈ 12.4 µM); MIC [17]: 128 µg/mL (≈ 257 µM); MIC (Escherichia coli [18]): 64 µg/mL (≈ 128 µM); MIC (Escherichia coli [19]): 32 µg/mL (≈ 64.2 µM); MIC (Pseudomonas aeruginosa [20]): > 128 µg/mL; MIC (Staphylococcus aureus [21]): 2 µg/mL (≈ 4.01 µM); MIC (Enterococcus faecium [22]): 32 µg/mL (≈ 64.2 µM); MIC (Proteus vulgaris): 64 µg/mL (≈ 128 µM); MIC (Staphylococcus aureus [23]): 2 µg/mL (≈ 4.01 µM); MIC [24]: 32 µg/mL (≈ 64.2 µM); MIC (Klebsiella pneumoniae [25]): > 128 µg/mL; MIC (Enterococcus faecium [26]): 32 µg/mL (≈ 64.2 µM); MIC (Klebsiella pneumoniae [27]): > 128 µg/mL; MIC (Providencia rettgeri): 128 µg/mL (≈ 257 µM); MIC (Klebsiella pneumoniae [28]): 128 µg/mL (≈ 257 µM); MIC (Escherichia coli [29]): 32 µg/mL (≈ 64.2 µM); MIC (Klebsiella pneumoniae [30]): > 128 µg/mL
2 | CN1CCC2(CC1)CCN(C(=N)c1ccc3cc(-c4ccc(-c5cc6ccc(C(=N)N7CCC8(CCN(C)CC8)C7)cc6[nH]5)cc4)[nH]c3c1)C2 | > 128 µg/mL | 16 µg/mL (≈ 24 µM) | 8 µg/mL (≈ 12 µM) | 16 µg/mL (≈ 24 µM) | 128 µg/mL (≈ 192 µM) | > 128 µg/mL | 16 µg/mL (≈ 24 µM) | 8 µg/mL (≈ 12 µM) | 8 µg/mL (≈ 12 µM) | > 128 µg/mL | 4 µg/mL (≈ 6 µM) | 16 µg/mL (≈ 24 µM) | 16 µg/mL (≈ 24 µM) | 8 µg/mL (≈ 12 µM) | 16 µg/mL (≈ 24 µM) | 16 µg/mL (≈ 24 µM) | > 128 µg/mL | 2 µg/mL (≈ 3 µM) | 128 µg/mL (≈ 192 µM) | 64 µg/mL (≈ 96 µM) | CC50 at 48 h [16]: 28.4 µg/mL (≈ 42.7 µM); MIC [17]: > 128 µg/mL; MIC (Escherichia coli [18]): 16 µg/mL (≈ 24 µM); MIC (Escherichia coli [19]): 16 µg/mL (≈ 24 µM); MIC (Pseudomonas aeruginosa [20]): 32 µg/mL (≈ 48 µM); MIC (Staphylococcus aureus [21]): 16 µg/mL (≈ 24 µM); MIC (Enterococcus faecium [22]): 16 µg/mL (≈ 24 µM); MIC (Proteus vulgaris): 128 µg/mL (≈ 192 µM); MIC (Staphylococcus aureus [23]): 8 µg/mL (≈ 12 µM); MIC [24]: 8 µg/mL (≈ 12 µM); MIC (Klebsiella pneumoniae [25]): 64 µg/mL (≈ 96 µM); MIC (Enterococcus faecium [26]): 16 µg/mL (≈ 24 µM); MIC (Klebsiella pneumoniae [27]): 16 µg/mL (≈ 24 µM); MIC (Providencia rettgeri): > 128 µg/mL; MIC (Klebsiella pneumoniae [28]): 16 µg/mL (≈ 24 µM); MIC (Escherichia coli [29]): 8 µg/mL (≈ 12 µM); MIC (Klebsiella pneumoniae [30]): 8 µg/mL (≈ 12 µM)
3 | CN(C)CCCNC(=N)c1ccc2cc(-c3ccc(-c4cc5ccc(C(=N)NCCCN(C)C)cc5[nH]4)cc3)[nH]c2c1 | 8 µg/mL (≈ 14.2 µM) | 4 µg/mL (≈ 7.11 µM) | 4 µg/mL (≈ 7.11 µM) | 8 µg/mL (≈ 14.2 µM) | 32 µg/mL (≈ 56.9 µM) | 8 µg/mL (≈ 14.2 µM) | 4 µg/mL (≈ 7.11 µM) | 4 µg/mL (≈ 7.11 µM) | 4 µg/mL (≈ 7.11 µM) | 8 µg/mL (≈ 14.2 µM) | 2 µg/mL (≈ 3.55 µM) | 8 µg/mL (≈ 14.2 µM) | 8 µg/mL (≈ 14.2 µM) | 8 µg/mL (≈ 14.2 µM) | 8 µg/mL (≈ 14.2 µM) | 4 µg/mL (≈ 7.11 µM) | 128 µg/mL (≈ 227 µM) | 2 µg/mL (≈ 3.55 µM) | 8 µg/mL (≈ 14.2 µM) | 8 µg/mL (≈ 14.2 µM) | CC50 at 48 h [16]: 27.7 µg/mL (≈ 49.2 µM); MIC [17]: 128 µg/mL (≈ 227 µM); MIC (Escherichia coli [18]): 8 µg/mL (≈ 14.2 µM); MIC (Escherichia coli [19]): 8 µg/mL (≈ 14.2 µM); MIC (Pseudomonas aeruginosa [20]): 8 µg/mL (≈ 14.2 µM); MIC (Staphylococcus aureus [21]): 4 µg/mL (≈ 7.11 µM); MIC (Enterococcus faecium [22]): 4 µg/mL (≈ 7.11 µM); MIC (Proteus vulgaris): 16 µg/mL (≈ 28.4 µM); MIC (Staphylococcus aureus [23]): 4 µg/mL (≈ 7.11 µM); MIC [24]: 4 µg/mL (≈ 7.11 µM); MIC (Klebsiella pneumoniae [25]): 8 µg/mL (≈ 14.2 µM); MIC (Enterococcus faecium [26]): 4 µg/mL (≈ 7.11 µM); MIC (Klebsiella pneumoniae [27]): 8 µg/mL (≈ 14.2 µM); MIC (Providencia rettgeri): 8 µg/mL (≈ 14.2 µM); MIC (Klebsiella pneumoniae [28]): 8 µg/mL (≈ 14.2 µM); MIC (Escherichia coli [29]): 4 µg/mL (≈ 7.11 µM); MIC (Klebsiella pneumoniae [30]): 8 µg/mL (≈ 14.2 µM)
